ChEMBL document CHEMBL5370592, “Synthesis and Structure-Activity Relationships of a New Class of Oxadiazoles Targeting DprE1 as Antitubercular Agents” (ACS Med Chem Lett, 2023)
≈ marks a conversion by molar mass, not a printed value.

How the values were obtained:
Type in all cases: functional
[1] = system: Mycobacterium tuberculosis; assay: Antitubercular activity against isoniazid/ofloxacin/prothionamide-resistant Mycobacterium tuberculosis NIH1B127 assessed as inhibition of bacterial growth incubated for 2 weeks; details: NIH1B127, 336 h
[2] = system: Mycobacterium tuberculosis; assay: Antitubercular activity against isoniazid/prothionamide-resistant Mycobacterium tuberculosis NIHA38 assessed as inhibition of bacterial growth incubated for 2 weeks; details: NIHA38, 336 h
[3] = system: Mycobacterium tuberculosis; assay: Antitubercular activity against isoniazid/rifampicin/ethambutol/pyrazinamide/streptomycin/kanamycin/para-aminosalicylic acid/prothionamide-resistant Mycobacterium tuberculosis K33b00MR assessed as inhibition of bacterial growth incubated for 2 weeks; details: 336 h
[4] = system: Mycobacterium tuberculosis; assay: Antitubercular activity against extensively drug-resistant Mycobacterium tuberculosis NIHB13 assessed as inhibition of bacterial growth incubated for 2 weeks; details: NIHB13, 336 h
[5] = system: Mycobacterium tuberculosis; assay: Antitubercular activity against isoniazid/rifampicin/pyrazinamide/prothionamide/rifabutin/ofloxacin/moxifloxacin/levofloxacin-resistant Mycobacterium tuberculosis NIHB188 assessed as inhibition of bacterial growth incubated for 2 weeks; details: NIHB188, 336 h
[6] = system: Mycobacterium tuberculosis; assay: Antitubercular activity against isoniazid/rifampicin/ethambutol/pyrazinamid/rifabutin-resistant Mycobacterium tuberculosis K26b00MR assessed as inhibition of bacterial growth incubated for 2 weeks; details: 336 h
[7] = system: Mycobacterium tuberculosis; assay: Antitubercular activity against isonizaid/rifampicin/ethambutol/rifabutin-resistant Mycobacterium tuberculosis NIH_G22R assessed as inhibition of bacterial growth incubated for 2 weeks; details: 336 h
[8] = system: Mycobacterium tuberculosis; assay: Antitubercular activity against ethambutol/D-cycloserine-resistant Mycobacterium tuberculosis NIH_G11R assessed as inhibition of bacterial growth incubated for 2 weeks; details: 336 h
[9] = system: Mycobacterium tuberculosis; assay: Antitubercular activity against isoniazid/rifampicin/ethambutol/pyrazinamide/rifabutin/prothionamide-resistant Mycobacterium tuberculosis NIHB302 assessed as inhibition of bacterial growth incubated for 2 weeks; details: NIHB302, 336 h
[10] = system: Mycobacterium tuberculosis; assay: Antitubercular activity against isoniazid/rifampicin/moxifloxacin-resistant Mycobacterium tuberculosis NIH_G367DR assessed as inhibition of bacterial growth incubated for 2 weeks; details: 336 h
[11] = system: Mycobacterium tuberculosis; assay: Antitubercular activity against isoniazid/ethambutol/prothionamide/D-cycloserine/ofloxacin/levofloxacin/pyrazinamide-resistant Mycobacterium tuberculosis NIH1B314 assessed as inhibition of bacterial growth incubated for 2 weeks; details: NIH1B314, 336 h
[12] = system: Mycobacterium tuberculosis; assay: Antitubercular activity against isoniazid/rifampicin/ethambutol/pyrazinamide/streptomycin/kanamycin-resistant Mycobacterium tuberculosis K20b00MR assessed as inhibition of bacterial growth incubated for 2 weeks; details: 336 h
[13] = system: Mycobacterium tuberculosis; assay: Antitubercular activity against isoniazid/rifampicin/para-aminosalicylic acid/pyrazinamide/prothionamide/rifabutin-resistant Mycobacterium tuberculosis NIHB68 assessed as inhibition of bacterial growth incubated for 2 weeks; details: NIHB68, 336 h
[14] = system: Mycobacterium tuberculosis; assay: Antitubercular activity against extensively drug-resistant Mycobacterium tuberculosis NIH1B178 assessed as inhibition of bacterial growth incubated for 2 weeks; details: NIH1B178, 336 h
[15] = system: Mycobacterium tuberculosis; assay: Antitubercular activity against extensively drug-resistant Mycobacterium tuberculosis 026K111 assessed as inhibition of bacterial growth incubated for 2 weeks; details: 026K111, 336 h
[16] = system: Mycobacterium tuberculosis; assay: Antitubercular activity against ethionamide-resistant Mycobacterium tuberculosis NIH_G145 assessed as inhibition of bacterial growth incubated for 2 weeks; details: NIH_G145, 336 h
[17] = system: Mycobacterium tuberculosis; assay: Antitubercular activity against isoniazid/prothionamide-resistant Mycobacterium tuberculosis NIHB140 assessed as inhibition of bacterial growth incubated for 2 weeks; details: NIHB140, 336 h
[18] = system: Mycobacterium tuberculosis; assay: Antitubercular activity against isonizaid/rifampicin/ethionamide/prothionamide-resistant Mycobacterium tuberculosis NIHA48 assessed as inhibition of bacterial growth incubated for 2 weeks; details: NIHA48, 336 h
[19] = system: Mycobacterium tuberculosis; assay: Antitubercular activity against isoniazid/ethionamide/D-cycloserine-resistant Mycobacterium tuberculosis NIH_G17R assessed as inhibition of bacterial growth incubated for 2 weeks; details: 336 h
[20] = system: Mycobacterium tuberculosis; assay: Antitubercular activity against isoniazid/rifampicin/ethambutol/rifabutin-resistant Mycobacterium tuberculosis K18b01MR assessed as inhibition of bacterial growth incubated for 2 weeks; details: 336 h
[21] = system: Mycobacterium tuberculosis; assay: Antitubercular activity against rifampicin/isoniazid/streptomycin/prothionamide-resistant Mycobacterium tuberculosis NIHB43 assessed as inhibition of bacterial growth incubated for 2 weeks; details: NIHB43, 336 h
[22] = system: Mycobacterium tuberculosis; assay: Antitubercular activity against extensively drug-resistant Mycobacterium tuberculosis 028K111 assessed as inhibition of bacterial growth incubated for 2 weeks; details: 028K111, 336 h
[23] = system: Mycobacterium tuberculosis; assay: Antitubercular activity against isoniazid/rifampicin/streptomycin-resistant Mycobacterium tuberculosis clinical strain 01291696 assessed as inhibition of bacterial growth incubated for 2 weeks; details: Mycobacterium tuberculosis, 01291696, 336 h
[24] = system: Mycobacterium tuberculosis; assay: Antitubercular activity against isoniazid/rifampicin/moxifloxacin-resistant Mycobacterium tuberculosis NIH_G76MR assessed as inhibition of bacterial growth incubated for 2 weeks; details: 336 h
[25] = system: Mycobacterium tuberculosis; assay: Antitubercular activity against isoniazid/ethionamide-resistant Mycobacterium tuberculosis NIH1B21 assessed as inhibition of bacterial growth incubated for 2 weeks; details: NIH1B21, 336 h
[26] = system: Mycobacterium tuberculosis; assay: Antitubercular activity against isoniazid/rifampicin/ethambutol/pyrazinamide/prothionamide/ofloxacin/levofloxacin/rifabutin-resistant Mycobacterium tuberculosis NIHB270 assessed as inhibition of bacterial growth incubated for 2 weeks; details: NIHB270, 336 h
[27] = system: Mycobacterium tuberculosis; assay: Antitubercular activity against isoniazid/rifampicin/para-aminosalicylic acid/ofloxacin/prothionamide-resistant Mycobacterium tuberculosis NIHB67 assessed as inhibition of bacterial growth incubated for 2 weeks; details: NIHB67, 336 h
[28] = system: Mycobacterium tuberculosis; assay: Antitubercular activity against isoniazid/rifampicin/ethambutol/streptomycin/D-cycloserine/rifabutin-resistant Mycobacterium tuberculosis NIH_G19R assessed as inhibition of bacterial growth incubated for 2 weeks; details: 336 h
[29] = system: Mycobacterium tuberculosis; assay: Antitubercular activity against isoniazid/rifampicin/ethambutol/rifabutin-resistant Mycobacterium tuberculosis K22b00MR assessed as inhibition of bacterial growth incubated for 2 weeks; details: 336 h
[30] = system: Mycobacterium tuberculosis; assay: Antitubercular activity against extensively drug-resistant Mycobacterium tuberculosis NIH1B250 assessed as inhibition of bacterial growth incubated for 2 weeks; details: NIH1B250, 336 h
[31] = system: Mycobacterium tuberculosis; assay: Antitubercular activity against isonizaid/rifampicin/ethambutol/rifabutin-resistant Mycobacterium tuberculosis NIH_G269DR assessed as inhibition of bacterial growth incubated for 2 weeks; details: 336 h
[32] = system: Mycobacterium tuberculosis; assay: Antitubercular activity against isoniazid/rifampicin/streptomycin/para-aminosalicylic acid/ofloxacin-resistant Mycobacterium tuberculosis K29b00MR assessed as inhibition of bacterial growth incubated for 2 weeks; details: 336 h
[33] = system: Mycobacterium tuberculosis; assay: Antitubercular activity against extensively drug-resistant Mycobacterium tuberculosis clinical strain 00202293 assessed as inhibition of bacterial growth incubated for 2 weeks; details: Mycobacterium tuberculosis, 00202293, 336 h
[34] = system: Mycobacterium tuberculosis; assay: Antitubercular activity against isoniazid/rifampicin/ethambutol/streptomycin-resistant Mycobacterium tuberculosis K21b00MR assessed as inhibition of bacterial growth incubated for 2 weeks; details: 336 h
[35] = system: Mycobacterium tuberculosis; assay: Antitubercular activity against isonizaid/rifampicin/rifabutin-resistant Mycobacterium tuberculosis NIHA37 assessed as inhibition of bacterial growth incubated for 2 weeks; details: NIHA37, 336 h
[36] = system: Mycobacterium tuberculosis; assay: Antitubercular activity against streptomycin/D-cycloserine-resistant Mycobacterium tuberculosis NIH_G169 assessed as inhibition of bacterial growth incubated for 2 weeks; details: NIH_G169, 336 h
[37] = system: Mycobacterium tuberculosis; assay: Antitubercular activity against isoniazid/rifampicin/ethambutol/rifabutin-resistant Mycobacterium tuberculosis NIH_G10R assessed as inhibition of bacterial growth incubated for 2 weeks; details: 336 h
[38] = system: Mycobacterium tuberculosis; assay: Antitubercular activity against extensively drug-resistant Mycobacterium tuberculosis clinical strain X37b00XR assessed as inhibition of bacterial growth incubated for 2 weeks; details: 336 h
[39] = system: Mycobacterium tuberculosis; assay: Antitubercular activity against isoniazid/rifampicin/kanamycin/pyrazinamide/capreomycin/amikacin/prothionamide/D-cycloserine-resistant Mycobacterium tuberculosis K32b00MR assessed as inhibition of bacterial growth incubated for 2 weeks; details: 336 h
[40] = system: Mycobacterium tuberculosis; assay: Antitubercular activity against isonizaid/rifampicin/streptomycin/ethionamide-resistant Mycobacterium tuberculosis NIH_G79 assessed as inhibition of bacterial growth incubated for 2 weeks; details: NIH_G79, 336 h
[41] = system: Mycobacterium tuberculosis; assay: Antitubercular activity against isoniazid/rifampicin/ethambutol/pyrazinamid/rifabutin/prothionamide-resistant Mycobacterium tuberculosis K25b00MR assessed as inhibition of bacterial growth incubated for 2 weeks; details: 336 h
[42] = system: Mycobacterium tuberculosis; assay: Antitubercular activity against isonizaid/rifampicin/ethambutol/rifabutin/D-cycloserine-resistant Mycobacterium tuberculosis NIH_G21R assessed as inhibition of bacterial growth incubated for 2 weeks; details: 336 h
[43] = system: Mycobacterium tuberculosis; assay: Antitubercular activity against isoniazid/rifampicin/ethambutol/para-aminosalicylic acid/kanamycin/ofloxacin/prothionamide-resistant Mycobacterium tuberculosis Kb019 assessed as inhibition of bacterial growth incubated for 2 weeks; details: Kb019, 336 h

SMILES: O=C(C1CCN(c2nnc(-c3ccccc3)o2)CC1)N1CCC(Cc2ccccc2)CC1
- MIC [1]: 0.39 µM (≈ 0.168 µg/mL)
- MIC [2]: 0.39 µM (≈ 0.168 µg/mL)
- MIC [3]: 2.3 µM (≈ 0.99 µg/mL)
- MIC [4]: 0.78 µM (≈ 0.336 µg/mL)
- MIC [5]: 0.6 µM (≈ 0.258 µg/mL)
- MIC [6]: 1.2 µM (≈ 0.517 µg/mL)
- MIC [7]: 1.2 µM (≈ 0.517 µg/mL)
- MIC [8]: 0.6 µM (≈ 0.258 µg/mL)
- MIC [9]: 0.78 µM (≈ 0.336 µg/mL)
- MIC [10]: 3.13 µM (≈ 1.35 µg/mL)
- MIC [11]: 3.13 µM (≈ 1.35 µg/mL)
- MIC [12]: 4.7 µM (≈ 2.02 µg/mL)
- MIC [13]: 0.39 µM (≈ 0.168 µg/mL)
- MIC [14]: 0.78 µM (≈ 0.336 µg/mL)
- MIC [15]: 1.56 µM (≈ 0.672 µg/mL)
- MIC [16]: 1.2 µM (≈ 0.517 µg/mL)
- MIC [17]: 0.6 µM (≈ 0.258 µg/mL)
- MIC [18]: 1.56 µM (≈ 0.672 µg/mL)
- MIC [19]: 0.6 µM (≈ 0.258 µg/mL)
- MIC [20]: 1.56 µM (≈ 0.672 µg/mL)
- MIC [21]: 0.78 µM (≈ 0.336 µg/mL)
- MIC [22]: 1.56 µM (≈ 0.672 µg/mL)
- MIC [23]: 0.78 µM (≈ 0.336 µg/mL)
- MIC [24]: 1.2 µM (≈ 0.517 µg/mL)
- MIC [25]: 1.56 µM (≈ 0.672 µg/mL)
- MIC [26]: 1.56 µM (≈ 0.672 µg/mL)
- MIC [27]: 0.78 µM (≈ 0.336 µg/mL)
- MIC [28]: 1.56 µM (≈ 0.672 µg/mL)
- MIC [29]: 1.56 µM (≈ 0.672 µg/mL)
- MIC [30]: 2.3 µM (≈ 0.99 µg/mL)
- MIC [31]: 1.2 µM (≈ 0.517 µg/mL)
- MIC [32]: 1.2 µM (≈ 0.517 µg/mL)
- MIC [33]: 1.56 µM (≈ 0.672 µg/mL)
- MIC [34]: 1.2 µM (≈ 0.517 µg/mL)
- MIC [35]: 0.39 µM (≈ 0.168 µg/mL)
- MIC [36]: 0.39 µM (≈ 0.168 µg/mL)
- MIC [37]: 0.6 µM (≈ 0.258 µg/mL)
- MIC [38]: 3.13 µM (≈ 1.35 µg/mL)
- MIC [39]: 1.56 µM (≈ 0.672 µg/mL)
- MIC [40]: 1.56 µM (≈ 0.672 µg/mL)
- MIC [41]: 1.2 µM (≈ 0.517 µg/mL)
- MIC [42]: 2.3 µM (≈ 0.99 µg/mL)
- MIC [43]: 4.7 µM (≈ 2.02 µg/mL)
